Like-named read-outs stand apart in the source and are kept apart here.
Experiments:
GSTZ1 haplotype carriers = settings: cited from earlier work
[1] = tested on: patients with Pyruvate Dehydrogenase Complex Deficiency (PDCD); test: Phase III double-blind, placebo-controlled crossover study with open label period: ObsROmotor, GHA, seizures, observer survey; assay type: in vivo, human
Procedure: (§1) A double-blind period (Phase A) and an open label period (Phase B) was performed in patients 6 months through 17 years of age with Pyruvate Dehydrogenase Complex Deficiency (PDCD) (n=34). Patients receiving DCA were dose-stratified according to GSTZ1 genotype. DCA was dosed orally (oral, nasogastric tube, or gastric tube route) at either 12.5 mg/kg (fast metabolizers) or 6.25 mg/kg (slow metabolizers), every 12 hours. Twenty-seven (27) of 34 patients (79%), were fast metabolizers.
The drug product is a clear, colorless solution.
The primary efficacy outcome was assessed using an observer reported outcome that measures motor function, referred to as the ObsROmotor. The ObsROmotor is a daily observer reported survey that assesses weakness, incoordination, hypotonia (low muscle tone), hypertonia (rigidity, stiff muscle tone), and involuntary movements. Each domain was scored from 0 to 4, where 0 is no presence of the symptom, 1 is mild, 2 is moderate, 3 is severe and 4 extreme, with a total score ranging from 0 to 20.
PDCD is a heterogenous disease with neurologic, metabolic and structural abnormalities. An observer rated Global Health Assessment (GHA) was also used to assess the overall health of the patient in addition to ObsROmotor. GHA was measured each week to assess the prior 7 days using a 5-point scale (much better, better, no change, worse, much worse). GHA scores improved over time and the scores were correlated with ObsROmotor.

[2] = tested on: patients with Pyruvate Dehydrogenase Complex Deficiency (PDCD); test: Plasma BHB (ketone) levels in Phase III study of DCA in PDCD patients; assay type: in vivo, human
Procedure: (§2) A total of 30 (of the 34) patients in the Phase III study in PDCD patients had lab values that could be evaluated throughout the study. Of these 30, 24 were defined to be adherent to a ketogenic diet based on their BHB level at baseline to be >0.3 mM.
as §1, with “metabolizers. […]” for “metabolizers.”

[3] = tested on: patients with Pyruvate Dehydrogenase Complex Deficiency (PDCD); test: Plasma lactate levels in Phase III study of DCA in PDCD patients; assay type: in vivo, human
Procedure: as §2
as §1, with “metabolizers. […]” for “metabolizers.”
Plasma lactate levels were evaluated as a key biomarker in PDCD. Lactate is a universal marker of disease activity in PDCD, and its elevation is a direct result of the fundamental metabolic deficit. Patients with PDCD have chronically elevated levels of lactate due to decreased PDC activity. Lowering of plasma lactate with use of DCA is considered a biomarker of its activation of PDC.

[4] = tested on: pediatric patients with PDCD; test: Adverse reaction data of Phase III study and open-label extension; assay type: in vivo, human
Procedure: In the Phase III study, the safety of DCA was assessed in 34 pediatric patients with PDCD aged 6 months to 17 years. Patients receiving DCA were dose-stratified post-randomization according to GSTZ1 genotype to mitigate risk of peripheral neuropathy. DCA was dosed at either 12.5 mg/kg or 6.25 mg/kg divided into two equal doses approximately 12 hours apart. The dose based on GSTZ1 genotyping was done at baseline before patients initiated therapy. As noted above, this Phase III controlled study was followed by an ongoing, open-label extension study, used to assess long term safety and survival outcomes.
In the open-label extension study, patients were treated for up to 3 years (median: 1.4 years) with DCA. The adverse events observed during the open-label phase of the study were similar to those observed in the double-blind portion of the study. During the open label portion of the trial there was a report of mild peripheral neuropathy in one patient who later withdrew from the study for a family relocation. This occurred after 18 months and was considered possibly drug related. DCA induced peripheral neuropathy has been identified as reversible upon therapy discontinuation.

[5] = tested on: pediatric patients with PDCD; test: Survival study of DCA-treated patients versus untreated natural history cohort; assay type: in vivo, human; settings: primary endpoint, matched on age and sex; n=28 vs n=28; p=0.0273
Procedure: Efficacy was assessed in a second study by comparing overall survival in pediatric patients with PDCD treated with DCA (n=28) with an untreated natural history cohort of pediatric patients with genetically confirmed PDCD (n=28).

[6] = severe patients (N=15), domain outside of motor function
[7] = Patient 01-001, DCA Open Label 1, keto ratio 4.0:1
[8] = Patient 01-001, DCA Open Label 2, keto ratio 4.0:1
[9] = Patient 01-001, DCA Open Label 3, keto ratio 4.0:1
[10] = Patient 01-001, DCA period, keto ratio 3.1:1
[11] = Patient 03-001, DCA Open Label 1, keto ratio Not Recorded
[12] = Patient 03-001, DCA Open Label 2, keto ratio 3.2:1
[13] = Patient 03-001, DCA Open Label 3, keto ratio 3.1:1
[14] = Patient 03-001, DCA period, keto ratio 4.0:1
[15] = Patient 07-003-S, DCA Open Label 1, keto ratio 0.7:1
[16] = Patient 07-003-S, DCA period, keto ratio 3.0:1
[17] = of the 24 patients adherent to the ketogenic diet
[18] = Phase III, all patients, p=0.006

## O=C(O)C(Cl)Cl [DCA, Dichloroacetate]
GSTZ1 haplotype carriers; EGT carriers (fast metabolizers), 25 mg/kg/day
  risk of peripheral neuropathy adverse events: low risk
GSTZ1 haplotype carriers; EGT non-carriers (slow metabolizers), 12.5 mg/kg/day
  risk of peripheral neuropathy adverse events: experience the same
[1]; open label extension, of 34 patients
  patients maintaining stable disease or achieving clinically meaningful improvement (>20% reduction in ObsROmotor): 24
[1]; open-label office visits, 25 of the 26 respondents
  survey respondents noting improvement in cognition, verbal communication, mobility, and/or endurance: 96.2%
[1]; open-label portion
  observers rating patients with a GHA as better or much better: > 80%
[1]; patients with more severe impairment at baseline (N=15)
  patients showing improvement in motor function in at least one of the five domains: 93%
[1]; patients with more severe impairment at baseline (N=15), p=0.066
  improvement of motor function in the ObsROmotor scale vs. placebo: −1.12
[1]; severe patients (N=15)
  number of severe patients improving: hypertonia: 6
  number of severe patients improving: hypotonia: 8
  number of severe patients improving: incoordination: 6
  number of severe patients improving: involuntary movement: 6
  number of severe patients improving: weakness: 6
[1]; [6]
  number of severe patients improving: fatigue: 7
  number of severe patients improving: sleep: 8
[2]; 9 patients without BHB increase, 2.04 mM not on DCA
  average BHB level while on DCA: 1.8 mM
[2]; 9 patients without BHB increase, 38% not on DCA
  measures that exceeded 3.0 mM BHB while on DCA: 24%
[2]; 15 patients that experienced an increase, 2.19 mM not on DCA
  average BHB level while on DCA: 3.27 mM
[2]; 15 patients that experienced an increase, 13% not on DCA
  measurements with clinically significant BHB (>3.0 mM) while on DCA: 62%
[2]; 15 patients that experienced an increase, on DCA vs not on DCA
  increase in average BHB level: 49%
[2]; [7]
  BHB: 3.19 mM
[2]; [8]
  BHB: 2.74 mM
[2]; [9]
  BHB: 4.08 mM
[2]; [10]
  BHB: 6.36 mM
[2]; [11]
  BHB: 4.41 mM
[2]; [12]
  BHB: 2.76 mM
[2]; [13]
  BHB: 2.06 mM
[2]; [14]
  BHB: 4.21 mM
[2]; [15]
  BHB: 2.38 mM
[2]; [16]
  BHB: 4.02 mM
[2]; group experiencing increases in BHB
  increase in the number of patients with BHB levels of 3.0 mM or higher: ~5 fold
[2]; group experiencing increases in BHB, 3% while not on DCA
  BHB levels greater than 4.0 while on DCA: 28%
[2]; [17]
  patients that did not experience a rise in ketone levels after administration of DCA: Nine
  patients with a rise in ketone levels after administration of DCA: 15
[3]; 9 patients without BHB increase
  drop in lactate: 11%
[3]; 9 patients without BHB increase, 51% not on DCA
  percentage of patients with normal lactate levels (2.0 mM or less) while on DCA: 71%
[3]; 15 patients with BHB increase
  drop in lactate levels while on DCA: 20%
[3]; 15 patients with BHB increase, 33% not on DCA
  percentage of patients with normal lactate levels (2.0 mM or less) while on DCA: 73%
[3]; [7]
  Lactate: 1.58 mM
[3]; [8]
  Lactate: 2.13 mM
[3]; [9]
  Lactate: 1.33 mM
[3]; [10]
  Lactate: 1.4 mM
[3]; [11]
  Lactate: 1.36 mM
[3]; [12]
  Lactate: 1.16 mM
[3]; [13]
  Lactate: 1.41 mM
[3]; [14]
  Lactate: 1.25 mM
[3]; [15]
  Lactate: 0.68 mM
[3]; [16]
  Lactate: 1.99 mM
[3]; [18]
  difference in plasma lactate, DCA vs. placebo: -0.477 mM
  reduction in plasma lactate levels, DCA vs. placebo: 21%
[3]; in both groups (with and without BHB increase)
  patients achieving lactate normalization while on DCA therapy: > 70%
[3]; vs. 42% on placebo, P=0.0114
  patients on DCA achieving normal levels (≤2mmol/L) of lactate: 66%
[4]; DCA (N = 34)
  Balance disorder: 1 (2.9) n (%)
  Bruxism: 0 n (%)
  Constipation: 1 (2.9) n (%)
  Diarrhea: 1 (2.9) n (%)
  Fatigue: 1 (2.9) n (%)
  Flatulence: 0 n (%)
  Gastrointestinal disorders (SOC): 2 (5.9) n (%)
  General disorders and administration site conditions (SOC): 1 (2.9) n (%)
  Insomnia: 0 n (%)
  Irritability: 0 n (%)
  Muscular weakness: 1 (2.9) n (%)
  Musculoskeletal and connective tissue disorders (SOC): 1 (2.9) n (%)
  Nervous system disorders (SOC): 1 (2.9) n (%)
  Psychiatric disorders (SOC): 0 n (%)
  Salivary hypersecretion: 0 n (%)
  Skin and subcutaneous tissue disorders (SOC): 1 (2.9) n (%)
  Syncope: 1 (2.9) n (%)
  Tremor: 1 (2.9) n (%)
  Urticaria: 1 (2.9) n (%)
[4]; Phase III, 34 pediatric patients
  deaths: no deaths
[4]; n=2 of 34 DCA-treated patients
  most commonly reported adverse reaction: gastrointestinal disorders: 5.9%
[4]; open label portion, after 18 months, considered possibly drug related
  patients with report of mild peripheral neuropathy: one
[5]
  multivariate risk reduction in the relative risk of death vs untreated patients: 99%
